Experimental data as given in patent publication US8790640B1, “Treating inflammation with a binding system” (LiveLeaf, Inc., priority 2011, dated 2014).

Test: Hydrogen peroxide retention of extracts after desiccation and rehydration (colorimetric strips)
Assay type: physicochemical
Details: dissolved in 35% hydrogen peroxide, heated at 80° C., rehydrated
Procedure: In order to compare the samples provided above, a test series was prepared in 30 ml tubes containing from 1 g˜10 g of the above extracts of Chinese Gall, Green Tea, Pomegranate and Resveratrol. Each was dissolved in 20 ml of 35% hydrogen peroxide then separate to two aliquots. One part was heated at 80° C. to a dark viscous semi-liquid and allowed to desiccate to a final volume of 5 ml. Each was rehydrated and serially diluted to detection range.

Oc1ccc(C=Cc2cc(O)cc(O)c2)cc1 [resveratrol, Resveratrol]
peroxide retention capability: relatively less ability to form stable perhydrates
